Measurements taken from paper PMC4260628 (Chembiochem : a European journal of chemical biology, 2014).
Where two headings read alike, the source gives them in different places.

Experiments:
TxtE [1] = target: T1, TxtE (Streptomyces scabiei, UniProt C9ZDC6); assay type: binding, Streptomyces scabies; settings: TxtE in E. coli cell lysate 1.9 – 2.8 μM, substrate 250–500 μM, 15 min, pH 8
TxtE [2] = target: T1, TxtE; test: biochemical; assay type: binding, Streptomyces scabies
TxtE [3] = target: T1, TxtE; settings: read-out: previously reported Kd; TxtE with L-tryptophan; cited from earlier work

N[C@@H](Cc1c[nH]c2ccccc12)C(=O)O [Substrate 1, L-tryptophan]
Spectral Shift (TxtE [1]): type I | Kd (TxtE [2]): 39 µM | Kd (TxtE [3]): 44 to 60 µM
